IC50 data for 21 compounds are collected here from US20240174662A1, “SMALL MOLECULE INHIBITORS OF SALT INDUCIBLE KINASES” (Janssen Biotech, Inc., priority 2021, published 2024).

For this assay, the target named is SIK2 (Homo sapiens (Human), UniProt Q9H0K1). Nature of the assay: SIK2 Enzymatic Assay Version 2 (High ATP). It is filed as biochemical. To be noted: 3 mM ATP and 200 μM HDAC5tide final, ADP-Glo Max luminescence. In short, it runs like this:
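Luminescent ADP-Glo Max read-out: depletion reagent 2 h, then detection reagent 1 h. Before the reaction, compounds were incubated 30 min with enzyme added at 6 nM (twice final concentration), with all steps at room temperature.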
Background: ADP-Glo first removes unused ATP, then detects ADP through luciferase.

Chain of SIK2 (Q9H0K1 whole entry, species assumed): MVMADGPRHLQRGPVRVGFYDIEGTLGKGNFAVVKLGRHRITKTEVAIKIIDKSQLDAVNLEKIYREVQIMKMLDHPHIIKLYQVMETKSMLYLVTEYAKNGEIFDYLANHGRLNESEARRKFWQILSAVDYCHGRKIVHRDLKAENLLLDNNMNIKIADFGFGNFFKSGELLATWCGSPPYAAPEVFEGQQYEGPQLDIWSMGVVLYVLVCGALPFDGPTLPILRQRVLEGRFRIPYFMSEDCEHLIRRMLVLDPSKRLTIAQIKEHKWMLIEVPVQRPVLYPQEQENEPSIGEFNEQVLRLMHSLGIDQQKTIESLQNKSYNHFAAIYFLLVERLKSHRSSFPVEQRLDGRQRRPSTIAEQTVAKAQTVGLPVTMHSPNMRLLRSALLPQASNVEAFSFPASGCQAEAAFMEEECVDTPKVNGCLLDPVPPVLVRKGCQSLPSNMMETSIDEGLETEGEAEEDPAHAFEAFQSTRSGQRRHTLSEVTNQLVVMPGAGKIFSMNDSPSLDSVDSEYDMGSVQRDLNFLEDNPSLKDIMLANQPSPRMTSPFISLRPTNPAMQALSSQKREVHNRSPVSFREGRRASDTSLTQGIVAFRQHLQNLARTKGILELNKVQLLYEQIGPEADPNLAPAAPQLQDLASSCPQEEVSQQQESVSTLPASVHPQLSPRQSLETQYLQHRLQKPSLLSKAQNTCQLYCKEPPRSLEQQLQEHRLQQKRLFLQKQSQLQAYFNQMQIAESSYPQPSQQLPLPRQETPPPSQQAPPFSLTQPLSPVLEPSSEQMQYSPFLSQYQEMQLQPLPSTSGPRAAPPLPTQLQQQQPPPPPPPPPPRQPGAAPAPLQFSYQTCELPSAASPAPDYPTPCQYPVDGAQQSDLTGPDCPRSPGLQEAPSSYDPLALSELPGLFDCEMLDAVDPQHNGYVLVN

By IC50 is commonly meant the concentration that inhibits the measured activity by half. Higher therefore signals a need for much substance. Compound `Cc1nccc(Nc2cc3cc(-c4c(OC[C@H]5CCCN5C)cnn4C)ccn3n2)n1` [Example 286, 5-[2-methyl-4-[[(2R)-1-methylpyrrolidin-2-yl]methoxy]pyrazol-3-yl]-N-(2-methylpyrimidin-4-yl)pyrazolo[1,5-a]pyridin-2-amine] returned an IC50 of 23.5 nM.
For `Cc1cc(Nc2cc3cc(-c4c(OC[C@@H]5CCO[C@@H]5C)cnn4C)ccn3n2)nc(C)n1` (relative stereo) [Example 295, (2*R, 3*S)—N-(2,6-dimethylpyrimidin-4-yl)-5-[2-methyl-4-[(2-methyltetrahydrofuran-3-yl)methoxy]pyrazol-3-yl]pyrazolo[1,5-a]pyridin-2-amine], half-maximal inhibition (IC50) was put at 24.5 nM.
In the case of `Cn1ncc(OC[C@H]2CCN2CC(C)(C)O)c1-c1ccn2nc(NC(=O)C3CC3)cc2c1` [Example 245, N-[5-[4-[[(2R)-1-(2-hydroxy-2-methyl-propyl)azetidin-2-yl]methoxy]-2-methyl-pyrazol-3-yl]pyrazolo[1,5-a]pyridin-2-yl]cyclopropanecarboxamide], the midpoint of inhibition, the IC50, lay at 13.7 nM.
`CN1CC[C@H](Oc2cnn(C)c2-c2ccn3nc(Nc4ccn5nccc5n4)cc3c2)C1` [Example 268, N-[5-[2-methyl-4-[(3S)-1-methylpyrrolidin-3-yl]oxy-pyrazol-3-yl]pyrazolo[1,5-a]pyridin-2-yl]pyrazolo[1,5-a]pyrimidin-5-amine] returned an IC50 of 36.5 nM.
Consider `Cc1cc(Nc2cc3cc(-c4c(OC[C@]5(C)CCCO5)cnn4C)ccn3n2)nc(C)n1` (single isomer, unassigned) [Example 447, (*S)—N-(2,6-dimethylpyrimidin-4-yl)-5-[2-methyl-4-[(2-methyltetrahydrofuran-2-yl)methoxy]pyrazol-3-yl]pyrazolo[1,5-a]pyridin-2-amine], for which the IC50 is 69.7 nM.
In turn, `CN1CC[C@@H]1COc1cnn(C)c1-c1ccn2nc(Nc3ccc4cnccc4n3)cc2c1` [Example 125, N-[5-[2-methyl-4-[[(2R)-1-methylazetidin-2-yl]methoxy]pyrazol-3-yl]pyrazolo[1,5-a]pyridin-2-yl]-1,6-naphthyridin-2-amine] had a 50% inhibitory concentration (IC50) of 1.3 nM. This IC50 lies about 54-fold lower than the previous one.
In the case of `Cn1ncc(OC[C@H]2CCN2CC(C)(C)C#N)c1-c1ccn2nc(NC(=O)C3CC3)cc2c1` [Example 255, N-[5-[4-[[(2R)-1-(2-cyano-2-methyl-propyl)azetidin-2-yl]methoxy]-2-methyl-pyrazol-3-yl]pyrazolo[1,5-a]pyridin-2-yl]cyclopropanecarboxamide], the IC50 amounted to 51.8 nM.
`Cn1ccc(CN2CC[C@@H]2COc2cnn(C)c2-c2ccn3nc(NC(=O)C4CC4)cc3c2)n1` [Example 430, N-[5-[2-methyl-4-[[(2R)-1-[(1-methylpyrazol-3-yl)methyl]azetidin-2-yl]methoxy]pyrazol-3-yl]pyrazolo[1,5-a]pyridin-2-yl]cyclopropanecarboxamide] displayed an IC50 of 97 nM. This IC50 lies about 1.9-fold higher than the previous one.
`Cn1ncc(OC[C@@H](O)C(F)(F)F)c1-c1ccn2nc(NC(=O)C3CC3)cc2c1` (single isomer, unassigned) [Example 401, (*R)—N-[5-[2-methyl-4-(3,3,3-trifluoro-2-hydroxy-propoxy)pyrazol-3-yl]pyrazolo[1,5-a]pyridin-2-yl]cyclopropanecarboxamide] registered an IC50 of 107 nM.
The compound `Cc1ccc(Nc2cc3cc(-c4c(O[C@H]5CCN(C)C5)cnn4C)ccn3n2)cn1` [Example 451, 5-[2-methyl-4-[(3S)-1-methylpyrrolidin-3-yl]oxy-pyrazol-3-yl]-N-(6-methyl-3-pyridyl)pyrazolo[1,5-a]pyridin-2-amine] yielded a half-inhibitory concentration (IC50) of 107 nM.
Compound `CN1CC[C@H](Oc2cnn(C)c2-c2ccn3nc(Nc4ccc(C5CC5)nn4)cc3c2)C1` [Example 462, N-(6-cyclopropylpyridazin-3-yl)-5-[2-methyl-4-[(3S)-1-methylpyrrolidin-3-yl]oxy-pyrazol-3-yl]pyrazolo[1,5-a]pyridin-2-amine] had a half-inhibitory concentration (IC50) of 86.5 nM.
In the case of `Cc1cc(Nc2cc3cc(-c4c(OC[C@H]5CCN5CCF)cnn4C)ccn3n2)nnc1C` [Example 276, N-(5,6-dimethylpyridazin-3-yl)-5-[4-[[(2R)-1-(2-fluoroethyl)azetidin-2-yl]methoxy]-2-methyl-pyrazol-3-yl]pyrazolo[1,5-a]pyridin-2-amine], the half-inhibitory concentration (IC50) is 0.9 nM.
The compound `CNC(=O)c1nc(C)cc(Nc2cc3cc(-c4c(OC[C@H]5CCN5C)cnn4C)ccn3n2)n1` [Example 109, N,4-dimethyl-6-[[5-[2-methyl-4-[[(2R)-1-methylazetidin-2-yl]methoxy]pyrazol-3-yl]pyrazolo[1,5-a]pyridin-2-yl]amino]pyrimidine-2-carboxamide] came in with a half-maximal inhibitory concentration (IC50) of 6.2 nM.
Compound `Cn1ncc(O[C@H]2CCNC2)c1-c1ccc2nc(NC(=O)C3CC3)cn2c1` [Example 471, N-[6-[2-methyl-4-[(3S)-pyrrolidin-3-yl]oxy-pyrazol-3-yl]imidazo[1,2-a]pyridin-2-yl]cyclopropanecarboxamide] had an IC50 of 55.8 nM.
Compound `Cc1onc(OC[C@H](N)c2ccccc2F)c1-c1ccn2nc(NC(=O)C3CC3)cc2c1` [Example 221, N-[5-[3-[(2R)-2-amino-2-(2-fluorophenyl)ethoxy]-5-methyl-isoxazol-4-yl]pyrazolo[1,5-a]pyridin-2-yl]cyclopropanecarboxamide] had a concentration for half-maximal inhibition (IC50) of 23.2 nM.
`CN1CC[C@@H](COc2cnn(CC3CC3)c2-c2ccn3nc(NC(=O)C4CC4)cc3c2)C1` [Example 489, N-[5-[2-(cyclopropylmethyl)-4-[[(3R)-1-methylpyrrolidin-3-yl]methoxy]pyrazol-3-yl]pyrazolo[1,5-a]pyridin-2-yl]cyclopropanecarboxamide] returned a half-maximal inhibitory concentration (IC50) of 13600 nM.
The compound `Cc1cc(Nc2cc3cc(-c4c(OCC5(F)CCNC5)cnn4C(F)F)ccn3n2)nc(C)n1` (racemic) [Example 101, (RS)-5-[2-(difluoromethyl)-4-[(3-fluoropyrrolidin-3-yl)methoxy]pyrazol-3-yl]-N-(2,6-dimethylpyrimidin-4-yl)pyrazolo[1,5-a]pyridin-2-amine] returned an IC50 of 7.2 nM.
Turning to `Cc1cc(Nc2cc3cc(-c4c(O[C@H]5CCN(C)C5)cnn4C)ccn3n2)nc(C)n1` [Example 267, N-(2,6-dimethylpyrimidin-4-yl)-5-[2-methyl-4-[(3S)-1-methylpyrrolidin-3-yl]oxy-pyrazol-3-yl]pyrazolo[1,5-a]pyridin-2-amine], the midpoint of inhibition, the IC50, lay at 29.8 nM.
Consider `CN1CC2(CCOCC2)[C@H]1COc1cnn(C)c1-c1ccn2nc(NC(=O)C3CC3)cc2c1` (single isomer, unassigned) [Example 59, (*S)—N-[5-[2-methyl-4-[(2-methyl-7-oxa-2-azaspiro[3.5]nonan-3-yl)methoxy]pyrazol-3-yl]pyrazolo[1,5-a]pyridin-2-yl]cyclopropanecarboxamide], for which the IC50 came to 690 nM.
As to `Cc1cnc(Nc2cc3cc(-c4c(O[C@@H]5CN[C@H](C)C5)noc4C)ccn3n2)cn1` [Example 322, 5-[5-methyl-3-[(3S,5R)-5-methylpyrrolidin-3-yl]oxy-isoxazol-4-yl]-N-(5-methylpyrazin-2-yl)pyrazolo[1,5-a]pyridin-2-amine], the IC50 was determined as 46.3 nM.
For `CN1CC2(CCOCC2)[C@@H]1COc1cnn(C)c1-c1ccn2nc(NC(=O)C3CC3)cc2c1` (single isomer, unassigned) [Example 58, (*R)—N-(5-(1-methyl-4-((2-methyl-7-oxa-2-azaspiro[3.5]nonan-1-yl)methoxy)-1H-pyrazol-5-yl)pyrazolo[1,5-a]pyridin-2-yl)cyclopropanecarboxamide], 57.8 nM corresponded to half-maximal inhibition (IC50).
